This test concerns therapieresistenter chronischer Sensibilitätsstörungen an Armen und Händen mit Verlust der rohen Kraft. The experiment in a line: Treatment of therapy-resistant chronic sensory disturbances of arms and hands with loss of strength. It counts as in vivo, Patienten.

Each structure is given as a SMILES string.

As for `CCN(CC)CC(=O)Nc1c(C)cccc1C` [Lidocain], the “Remission der Kraftlosigkeit” value (2 to 4 deep paravertebral injections, middle or lower cervical spine, 0,1 Gew.-%) is recorded as “Spontane Remission”. In addition, the “Remission der Sensibilitätsstörungen” value (after further identical treatment sessions) is given as “vollständig nach zwei bis vier weiteren identisch reproduzierten Behandlungssitzungen”.
